Experiments:
[1] = target: Mitogen-activated protein kinase 1 (Homo sapiens, UniProt P28482); test: DRUGMATRIX: Protein Serine/Threonine Kinase, ERK2 enzyme inhibition (substrate: Myelin Basic Protein); parameters: species or system Escherichia coli; conditions: Not Active = under 50% inhibition at 10 µM
[2] = target: Sodium-dependent noradrenaline transporter (Homo sapiens, UniProt P23975); test: DRUGMATRIX: Norepinephrine Transporter radioligand binding (ligand: [125I] RTI-55); assay type: cell membranes, MDCK, Membrane; conditions: Not Active = under 50% inhibition at 10 µM
Sequence of Sodium-dependent noradrenaline transporter (P23975 whole entry): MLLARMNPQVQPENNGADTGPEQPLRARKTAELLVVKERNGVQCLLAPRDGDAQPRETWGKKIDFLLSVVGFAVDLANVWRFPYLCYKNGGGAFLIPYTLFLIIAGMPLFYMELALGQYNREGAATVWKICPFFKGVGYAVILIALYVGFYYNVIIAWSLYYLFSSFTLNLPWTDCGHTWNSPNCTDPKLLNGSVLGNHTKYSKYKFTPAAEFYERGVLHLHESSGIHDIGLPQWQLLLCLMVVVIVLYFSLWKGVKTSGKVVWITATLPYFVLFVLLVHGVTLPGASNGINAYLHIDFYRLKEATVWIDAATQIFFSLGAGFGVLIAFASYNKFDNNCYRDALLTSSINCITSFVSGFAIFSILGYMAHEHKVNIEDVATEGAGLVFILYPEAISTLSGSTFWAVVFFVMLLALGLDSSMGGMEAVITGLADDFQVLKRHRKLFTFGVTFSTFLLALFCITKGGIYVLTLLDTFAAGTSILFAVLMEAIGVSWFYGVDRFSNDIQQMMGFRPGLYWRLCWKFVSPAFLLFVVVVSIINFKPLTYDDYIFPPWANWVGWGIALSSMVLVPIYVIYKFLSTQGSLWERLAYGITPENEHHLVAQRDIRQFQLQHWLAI

[3] = target: Mitogen-activated protein kinase 3 (Homo sapiens, UniProt P27361); test: DRUGMATRIX: Protein Serine/Threonine Kinase, ERK1 enzyme inhibition (substrate: Myelin Basic Protein); parameters: species or system Escherichia coli; conditions: Not Active = under 50% inhibition at 10 µM
Sequence of Mitogen-activated protein kinase 3 (P27361 whole entry): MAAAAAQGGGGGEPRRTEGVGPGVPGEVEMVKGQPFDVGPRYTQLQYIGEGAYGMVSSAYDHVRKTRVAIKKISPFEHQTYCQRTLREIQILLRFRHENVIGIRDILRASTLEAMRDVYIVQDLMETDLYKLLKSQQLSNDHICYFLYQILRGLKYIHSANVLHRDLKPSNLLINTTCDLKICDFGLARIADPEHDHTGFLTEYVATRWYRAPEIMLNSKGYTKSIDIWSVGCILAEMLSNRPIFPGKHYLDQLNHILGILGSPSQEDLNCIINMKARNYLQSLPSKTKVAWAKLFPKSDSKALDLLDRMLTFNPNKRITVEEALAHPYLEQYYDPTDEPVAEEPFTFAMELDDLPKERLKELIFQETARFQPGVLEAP

[4] = target: T1, 5-hydroxytryptamine receptor 1A (Rattus norvegicus, UniProt P19327); assay type: cell membranes, Membrane; conditions: cho-k1; note: in other assays of this panel Not Active means under 50% inhibition at 10 µM
T1 sequence (P19327 whole entry): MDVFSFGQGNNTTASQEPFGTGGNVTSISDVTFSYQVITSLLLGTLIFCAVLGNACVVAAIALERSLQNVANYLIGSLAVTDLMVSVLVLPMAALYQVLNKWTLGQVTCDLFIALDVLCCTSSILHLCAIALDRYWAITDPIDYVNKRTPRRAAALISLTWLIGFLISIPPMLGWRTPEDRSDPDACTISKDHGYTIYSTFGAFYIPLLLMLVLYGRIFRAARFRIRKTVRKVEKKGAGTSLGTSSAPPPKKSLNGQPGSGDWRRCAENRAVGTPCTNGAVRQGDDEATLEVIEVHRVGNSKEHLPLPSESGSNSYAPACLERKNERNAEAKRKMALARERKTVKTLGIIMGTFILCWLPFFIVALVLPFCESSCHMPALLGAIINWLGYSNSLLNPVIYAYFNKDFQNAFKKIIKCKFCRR

[5] = target: T2, Estrogen receptor (Homo sapiens, UniProt P03372); conditions: sf9; note: in other assays of this panel Not Active means under 50% inhibition at 10 µM
T2 sequence (P03372 whole entry): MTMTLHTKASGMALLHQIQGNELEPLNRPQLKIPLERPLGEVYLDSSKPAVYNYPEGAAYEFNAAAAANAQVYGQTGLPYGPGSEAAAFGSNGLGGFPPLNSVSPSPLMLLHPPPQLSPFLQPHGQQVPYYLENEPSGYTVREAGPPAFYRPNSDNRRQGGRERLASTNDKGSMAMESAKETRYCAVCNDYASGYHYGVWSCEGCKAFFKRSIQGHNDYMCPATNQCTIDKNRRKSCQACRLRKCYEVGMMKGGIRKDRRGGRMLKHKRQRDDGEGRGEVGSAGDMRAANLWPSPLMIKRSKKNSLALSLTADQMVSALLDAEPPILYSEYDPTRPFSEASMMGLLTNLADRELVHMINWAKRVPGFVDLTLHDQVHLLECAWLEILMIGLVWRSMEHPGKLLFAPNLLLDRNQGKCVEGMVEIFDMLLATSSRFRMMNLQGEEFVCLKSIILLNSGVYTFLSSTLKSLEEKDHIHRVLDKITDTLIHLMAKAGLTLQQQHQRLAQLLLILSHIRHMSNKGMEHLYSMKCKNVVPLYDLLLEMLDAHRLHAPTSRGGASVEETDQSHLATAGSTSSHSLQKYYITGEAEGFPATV

[6] = DRUGMATRIX: Imidazoline I2, Central radioligand binding (ligand: [3H] Idazoxan); assay type: cell membranes, Rattus norvegicus, Wistar, Cerebral cortex, Membrane; conditions: Not Active = under 50% inhibition at 10 µM
[7] = target: Carbonic anhydrase 2 (Homo sapiens, UniProt P00918); test: DRUGMATRIX: Carbonic Anhydrase II enzyme inhibition (substrate: 4-Nitrophenyl acetate (4-NPA)); assay type: tissue-based, Erythrocyte; conditions: erythrocyte; Not Active = under 50% inhibition at 10 µM
[8] = target: T3, Interstitial collagenase (Homo sapiens, UniProt P03956); test: biochemical; assay type: tissue-based, Rheumatoid synovial fibroblasts;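 note: MMP-1 enzyme inhibition assay using a peptide substrate; in other assays of this panel Not Active means under 50% inhibition at 10 µM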
T3 sequence (P03956 whole entry): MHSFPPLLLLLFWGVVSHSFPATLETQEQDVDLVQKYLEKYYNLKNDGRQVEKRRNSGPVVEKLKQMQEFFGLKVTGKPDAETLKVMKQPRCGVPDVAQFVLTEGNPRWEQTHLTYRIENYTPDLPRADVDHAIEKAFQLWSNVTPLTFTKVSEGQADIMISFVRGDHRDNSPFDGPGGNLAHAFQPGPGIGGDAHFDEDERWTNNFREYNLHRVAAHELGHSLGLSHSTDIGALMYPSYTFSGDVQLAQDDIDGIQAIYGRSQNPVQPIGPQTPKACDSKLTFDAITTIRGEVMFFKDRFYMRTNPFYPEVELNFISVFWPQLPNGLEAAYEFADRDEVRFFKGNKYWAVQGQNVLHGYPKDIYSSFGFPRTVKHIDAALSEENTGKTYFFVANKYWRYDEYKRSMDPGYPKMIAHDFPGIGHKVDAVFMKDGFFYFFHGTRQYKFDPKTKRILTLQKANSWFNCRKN

Sequence of Mitogen-activated protein kinase 1 (P28482 whole entry): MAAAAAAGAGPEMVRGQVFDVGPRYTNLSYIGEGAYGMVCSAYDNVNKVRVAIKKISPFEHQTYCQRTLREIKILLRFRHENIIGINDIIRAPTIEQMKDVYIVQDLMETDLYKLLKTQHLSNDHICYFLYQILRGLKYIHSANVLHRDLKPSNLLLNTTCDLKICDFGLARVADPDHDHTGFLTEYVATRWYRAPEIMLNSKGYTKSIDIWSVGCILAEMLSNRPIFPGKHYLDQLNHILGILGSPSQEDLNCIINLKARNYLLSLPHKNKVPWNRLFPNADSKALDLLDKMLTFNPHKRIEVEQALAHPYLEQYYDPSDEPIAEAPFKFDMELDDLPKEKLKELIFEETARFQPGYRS

Row | Structure (SMILES) | IC50 [1] | IC50 ([2]; mdck) | IC50 [3] | IC50 [4] | IC50 [5] | IC50 [6] | Ki [6] | IC50 [7] | IC50 [8] | IC50 ([8]; read-out: IC50) [µM] | IC50 ([2]; read-out: IC50) [µM] | Ki ([2]; read-out: Ki) [µM] | IC50 ([1]; read-out: IC50) [µM]
1 | CC(C)Cc1ccc(C(C)C(=O)O)cc1 (stereo not drawn) [IBUPROFEN] | Not Active | Not Active | Not Active | Not Active | Not Active | Not Active | Not Active | Not Active | Not Active |  |  |  | 
2 | COc1ccc2c(c1)c(CC(=O)O)c(C)n2C(=O)c1ccc(Cl)cc1 [INDOMETHACIN] | Not Active | Not Active | Not Active | Not Active | Not Active | Not Active | Not Active | Not Active | Not Active |  |  |  | 
3 | CCc1c2c(nc3ccc(OC(=O)N4CCC(N5CCCCC5)CC4)cc13)-c1cc3c(c(=O)n1C2)COC(=O)[C@]3(O)CC [IRINOTECAN] | Not Active | Not Active | Not Active | Not Active | Not Active | Not Active | Not Active | Not Active |  | 6.06 |  |  | 
4 | CC(C(=O)O)c1cccc(C(=O)c2ccccc2)c1 (stereo not drawn) [KETOPROFEN] | Not Active | Not Active | Not Active | Not Active | Not Active | Not Active | Not Active | Not Active | Not Active |  |  |  | 
5 | O=S(=O)([O-])CCS.[Na+] [MESNA] | Not Active | Not Active | Not Active | Not Active | Not Active | Not Active | Not Active | Not Active | Not Active |  |  |  | 
6 | CC(=O)Nc1cccc(O)c1 [METACETAMOL] | Not Active | Not Active | Not Active | Not Active | Not Active | Not Active | Not Active | Not Active | Not Active |  |  |  | 
7 | Cc1ncc([N+](=O)[O-])n1CCO [METRONIDAZOLE] | Not Active | Not Active | Not Active | Not Active | Not Active | Not Active | Not Active | Not Active | Not Active |  |  |  | 
8 | CC(C)(C(=O)c1cccnc1)c1cccnc1 [METYRAPONE] | Not Active | Not Active | Not Active | Not Active | Not Active | Not Active | Not Active | Not Active | Not Active |  |  |  | 
9 | Oc1ccc(OCc2ccccc2)cc1 [MONOBENZONE] | Not Active |  | Not Active | Not Active | Not Active | Not Active | Not Active | Not Active | Not Active |  | 3.89 | 3.85 | 
10 | CC(C)(Oc1ccc(C2CCCc3ccccc32)cc1)C(=O)O (stereo not drawn) [NAFENOPIN] |  | Not Active | Not Active | Not Active | Not Active | Not Active | Not Active | Not Active | Not Active |  |  |  | 0.815
11 | CC(C)[C@H]1CC[C@H](C(=O)N[C@H](Cc2ccccc2)C(=O)O)CC1 [NATEGLINIDE] | Not Active | Not Active | Not Active | Not Active | Not Active | Not Active | Not Active | Not Active | Not Active |  |  |  | 
12 | CCN[C@@H]1C[C@H](N)[C@@H](O[C@H]2OC(CN)=CC[C@H]2N)[C@H](O)[C@H]1O[C@H]1OC[C@](C)(O)[C@H](NC)[C@H]1O [NETILMICIN] | Not Active | Not Active | Not Active | Not Active | Not Active | Not Active | Not Active | Not Active | Not Active |  |  |  | 
13 | COC(=O)C1=C(C)NC(C)=C(C(=O)OCC(C)C)C1c1ccccc1[N+](=O)[O-] (stereo not drawn) [NISOLDIPINE] | Not Active | Not Active | Not Active | Not Active | Not Active | Not Active | Not Active | Not Active | Not Active |  |  |  | 
14 | CCOC(=O)C1=C(C)NC(C)=C(C(=O)OC)C1c1cccc([N+](=O)[O-])c1 (stereo not drawn) [NITRENDIPINE] | Not Active | Not Active | Not Active | Not Active | Not Active | Not Active | Not Active | Not Active | Not Active |  |  |  | 
15 | COc1ccc2[nH]c([S+]([O-])Cc3ncc(C)c(OC)c3C)nc2c1 (stereo not drawn) [OMEPRAZOLE] | Not Active | Not Active | Not Active | Not Active | Not Active | Not Active | Not Active | Not Active | Not Active |  |  |  | 
16 | Cc1nccn1CC1CCc2c(c3ccccc3n2C)C1=O (stereo not drawn) [ONDANSETRON] | Not Active | Not Active | Not Active | Not Active | Not Active | Not Active | Not Active | Not Active | Not Active |  |  |  | 
17 | CCn1cc(C(=O)O)c(=O)c2cc(F)c(N3CCN(C)CC3)cc21 [PEFLOXACIN] | Not Active | Not Active | Not Active | Not Active | Not Active | Not Active | Not Active | Not Active | Not Active |  |  |  | 
18 | CCCCOc1ccc(OCCCN2CCOCC2)cc1 [PRAMOXINE] | Not Active | Not Active | Not Active | Not Active | Not Active | Not Active | Not Active | Not Active | Not Active |  |  |  | 
19 | NC(=O)c1cnccn1 [PYRAZINAMIDE] | Not Active | Not Active | Not Active | Not Active | Not Active | Not Active | Not Active | Not Active | Not Active |  |  |  | 
20 | OC(CCN1CCCCC1)(c1ccccc1)C1CCCCC1 (stereo not drawn) [TRIHEXYPHENIDYL] | Not Active | Not Active | Not Active | Not Active | Not Active | Not Active | Not Active | Not Active | Not Active |  |  |  | 
21 | Cc1cc2cc3c(C)cc(=O)oc3c(C)c2o1 [TRIOXSALEN] | Not Active | Not Active | Not Active | Not Active | Not Active | Not Active | Not Active | Not Active | Not Active |  |  |  | 
22 | CCCC(CCC)C(=O)O [VALPROIC ACID] | Not Active | Not Active | Not Active | Not Active | Not Active | Not Active | Not Active | Not Active | Not Active |  |  |  | 
23 | CCC1=C[C@@H]2CN(C1)Cc1c([nH]c3ccccc13)[C@@](C(=O)OC)(c1cc3c(cc1OC)N(C)[C@H]1[C@@](O)(C(=O)OC)[C@H](OC(C)=O)[C@]4(CC)C=CCN5CC[C@]31[C@@H]54)C2 [VINORELBINE] | Not Active | Not Active | Not Active | Not Active | Not Active | Not Active | Not Active | Not Active | Not Active |  |  |  | 

From ChEMBL document CHEMBL1909046, “DrugMatrix in vitro pharmacology data”
